The target of data set [1] is B-Raf^V600E (Homo sapiens, UniProt P15056, V600E). Briefly: In vitro B-Raf kinase assay. Type of data set: biochemical.
The target in data set [2] is B-Raf^WT (Homo sapiens, UniProt P15056). Briefly: In vitro B-Raf kinase assay. Type of data set: biochemical. To be noted: for inhibition at 2 µM: read-out: Inhibition rate (%) B-Raf.
For data set [3], the system named is A375 (B-Raf^V600E) malignant melanoma cells. Briefly: Anti-proliferation activity, A375 melanoma cells. Type of data set: cell-based, human. Particulars: for inhibition at 10 µM: Homo sapiens, A-375, read-out: Tumor growth inhibition rate A375(B-Raf^V600E); for Tumor growth inhibition rate A375(B-Raf^V600E): [I]=10μM.
The subject of data set [4] is patients harboring the B-Raf^V600E mutation. To be noted: cited from earlier work.
Data set [5] concerns SW620 (B-Raf^WT) human colonic carcinoma cells. Briefly: Anti-proliferation activity, SW620 cells. Type of data set: cell-based. To be noted: SW-620, read-out: Tumor growth inhibition rate SW620 (B-Raf).
Data set [6] relates to 1205Lu (B-Raf^V600E bearing) melanoma cells. Nature of the data set: Melanoma proliferation assay. Format: cell-based, human. To be noted: dose-dependent, 72 h, Figure 3.
Data set [7] concerns WM983B (B-Raf^V600E bearing) melanoma cells. Nature of the data set: Melanoma proliferation assay. Type of data set: cell-based, human. Particulars: dose-dependent, 72 h, Figure 3.
The test system of data set [8] is WM3918 melanoma cells not expressing mutant B-Raf. Briefly: Melanoma proliferation assay. Format: cell-based, human. To be noted: dose-dependent, 72 h, Figure 3.
Data set [9] concerns normal human primary fibroblasts (FF2508). Briefly: Proliferation assay. Format: cell-based. To be noted: dose-dependent, 72 h, Figure 3.
The target of data set [10] is SRC (Homo sapiens, UniProt P12931). Nature of the data set: Kinase profiling, SRC. Type of data set: biochemical. Particulars: read-out: Inhibition rate (%) SRC.
SRC, sequence (P12931 whole entry, species assumed): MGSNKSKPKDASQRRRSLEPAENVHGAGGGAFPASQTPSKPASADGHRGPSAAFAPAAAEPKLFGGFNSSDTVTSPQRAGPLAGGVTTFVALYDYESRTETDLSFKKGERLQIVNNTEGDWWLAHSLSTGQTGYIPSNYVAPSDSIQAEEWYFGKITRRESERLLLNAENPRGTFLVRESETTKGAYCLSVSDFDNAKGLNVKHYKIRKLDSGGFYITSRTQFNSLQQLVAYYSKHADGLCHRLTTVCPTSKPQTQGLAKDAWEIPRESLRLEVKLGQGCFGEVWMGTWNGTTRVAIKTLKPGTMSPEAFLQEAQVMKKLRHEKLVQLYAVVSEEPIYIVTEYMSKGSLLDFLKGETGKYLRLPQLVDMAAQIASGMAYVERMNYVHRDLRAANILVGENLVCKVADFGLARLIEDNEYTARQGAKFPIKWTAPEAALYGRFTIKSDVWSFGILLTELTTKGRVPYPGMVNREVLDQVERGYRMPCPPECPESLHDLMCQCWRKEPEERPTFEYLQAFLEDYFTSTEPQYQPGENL
For data set [11], the target named is LCK (Homo sapiens, UniProt P06239). Nature of the data set: Kinase profiling, LCK. Particulars: read-out: Inhibition rate (%) LCK. Type of data set: biochemical.
The target in data set [12] is KDR (Homo sapiens, UniProt P35968). Nature of the data set: Kinase profiling, KDR. Particulars: read-out: Inhibition rate (%) KDR. Type of data set: biochemical.
Data set [13] addresses CDK2 (Homo sapiens, UniProt P24941). Briefly: Kinase profiling, CDK2. To be noted: read-out: Inhibition rate (%) CDK2. Format: biochemical.
Data set [14] has as its target ERK1 (Homo sapiens, UniProt P27361). Briefly: Kinase profiling, ERK1. Format: biochemical. Particulars: read-out: Inhibition rate (%) ERK1.
Data set [15] has as its target IGF1R (Homo sapiens, UniProt P08069). Briefly: Kinase profiling, IGF1R. Format: biochemical. To be noted: read-out: Inhibition rate (%) IGF1R.
Data set [16] has as its target T1, IKKβ (Homo sapiens, UniProt O14920).
T1 sequence (O14920 1-756): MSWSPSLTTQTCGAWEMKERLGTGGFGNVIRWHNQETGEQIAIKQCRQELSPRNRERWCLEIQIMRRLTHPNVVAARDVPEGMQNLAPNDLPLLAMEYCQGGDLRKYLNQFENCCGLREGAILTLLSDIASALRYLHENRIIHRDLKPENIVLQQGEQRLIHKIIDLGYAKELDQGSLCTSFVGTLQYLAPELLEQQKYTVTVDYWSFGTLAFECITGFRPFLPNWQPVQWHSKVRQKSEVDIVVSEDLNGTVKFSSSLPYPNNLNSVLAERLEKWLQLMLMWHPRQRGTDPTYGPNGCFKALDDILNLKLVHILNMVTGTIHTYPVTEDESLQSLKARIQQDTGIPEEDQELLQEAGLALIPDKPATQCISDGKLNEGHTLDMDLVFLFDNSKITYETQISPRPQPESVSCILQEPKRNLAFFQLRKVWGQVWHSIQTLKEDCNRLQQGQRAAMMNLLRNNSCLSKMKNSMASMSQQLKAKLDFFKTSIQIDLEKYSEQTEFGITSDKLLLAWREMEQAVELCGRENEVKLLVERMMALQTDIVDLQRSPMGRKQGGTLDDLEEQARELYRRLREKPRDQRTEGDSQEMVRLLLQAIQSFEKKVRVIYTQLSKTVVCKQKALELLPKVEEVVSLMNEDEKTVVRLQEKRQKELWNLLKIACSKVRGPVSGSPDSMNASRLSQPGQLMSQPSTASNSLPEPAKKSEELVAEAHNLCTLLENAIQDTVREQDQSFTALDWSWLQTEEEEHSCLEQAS
Nature of the data set: Kinase profiling, IKKβ. To be noted: read-out: Inhibition rate (%) IKKβ. Format: biochemical.

For data set [17], the target named is PKCα (Homo sapiens, UniProt P17252). Briefly: Kinase profiling, PKCα. Particulars: read-out: Inhibition rate (%) PKCα. Type of data set: biochemical.
The target in data set [18] is PDGFRα (Homo sapiens, UniProt P16234). Briefly: Kinase profiling, PDGFRα. Type of data set: biochemical. To be noted: read-out: Inhibition rate (%) PDGFRα.
PDGFRα, sequence (P16234 24-1089, species assumed): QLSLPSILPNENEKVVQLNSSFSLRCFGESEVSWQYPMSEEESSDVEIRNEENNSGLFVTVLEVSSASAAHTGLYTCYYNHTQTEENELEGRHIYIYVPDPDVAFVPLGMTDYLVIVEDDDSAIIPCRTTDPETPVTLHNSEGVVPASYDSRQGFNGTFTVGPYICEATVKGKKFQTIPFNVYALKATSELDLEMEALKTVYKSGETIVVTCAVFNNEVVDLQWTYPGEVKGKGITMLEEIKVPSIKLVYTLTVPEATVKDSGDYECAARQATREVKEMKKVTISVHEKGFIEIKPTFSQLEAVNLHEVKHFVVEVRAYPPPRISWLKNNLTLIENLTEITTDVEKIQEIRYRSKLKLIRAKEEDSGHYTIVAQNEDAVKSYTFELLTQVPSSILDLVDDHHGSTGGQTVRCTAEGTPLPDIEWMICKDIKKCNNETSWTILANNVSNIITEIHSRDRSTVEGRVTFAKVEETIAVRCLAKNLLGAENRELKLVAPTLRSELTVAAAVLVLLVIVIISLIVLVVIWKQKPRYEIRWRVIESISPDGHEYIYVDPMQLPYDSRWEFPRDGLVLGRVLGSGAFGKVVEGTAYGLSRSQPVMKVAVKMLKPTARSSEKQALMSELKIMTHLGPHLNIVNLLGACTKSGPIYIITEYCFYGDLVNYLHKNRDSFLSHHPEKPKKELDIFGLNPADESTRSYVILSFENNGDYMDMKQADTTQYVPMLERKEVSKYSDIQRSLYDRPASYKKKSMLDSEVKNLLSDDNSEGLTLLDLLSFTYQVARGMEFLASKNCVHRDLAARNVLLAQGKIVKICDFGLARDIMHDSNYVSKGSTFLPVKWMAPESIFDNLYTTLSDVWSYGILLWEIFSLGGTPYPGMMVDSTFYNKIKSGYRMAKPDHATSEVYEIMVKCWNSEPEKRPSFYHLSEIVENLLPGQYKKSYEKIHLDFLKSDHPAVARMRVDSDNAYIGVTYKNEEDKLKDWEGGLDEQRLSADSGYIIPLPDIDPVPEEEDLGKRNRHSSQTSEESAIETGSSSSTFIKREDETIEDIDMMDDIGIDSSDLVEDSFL
For data set [19], the target named is EGFR (Homo sapiens, UniProt P00533). Nature of the data set: Kinase profiling, EGFR. Format: biochemical. To be noted: read-out: Inhibition rate (%) EGFR.
Data set [20] concerns the target FGFR1 (Homo sapiens, UniProt P11362). Nature of the data set: Kinase profiling, FGFR1. Type of data set: biochemical. Particulars: read-out: Inhibition rate (%) FGFR1.
Data set [21] deals with AKT1 (Homo sapiens, UniProt P31749). Briefly: Kinase profiling, AKT1. Format: biochemical. To be noted: read-out: Inhibition rate (%) AKT1.
Data set [22] has as its target MET (Homo sapiens, UniProt P08581). Briefly: Kinase profiling, MET. Type of data set: biochemical. Particulars: read-out: Inhibition rate (%) MET.
In data set [23] the target is cKIT (Homo sapiens, UniProt P10721). Briefly: Kinase profiling, cKIT. Type of data set: biochemical. Particulars: read-out: Inhibition rate (%) cKIT.
cKIT, sequence (P10721 26-976): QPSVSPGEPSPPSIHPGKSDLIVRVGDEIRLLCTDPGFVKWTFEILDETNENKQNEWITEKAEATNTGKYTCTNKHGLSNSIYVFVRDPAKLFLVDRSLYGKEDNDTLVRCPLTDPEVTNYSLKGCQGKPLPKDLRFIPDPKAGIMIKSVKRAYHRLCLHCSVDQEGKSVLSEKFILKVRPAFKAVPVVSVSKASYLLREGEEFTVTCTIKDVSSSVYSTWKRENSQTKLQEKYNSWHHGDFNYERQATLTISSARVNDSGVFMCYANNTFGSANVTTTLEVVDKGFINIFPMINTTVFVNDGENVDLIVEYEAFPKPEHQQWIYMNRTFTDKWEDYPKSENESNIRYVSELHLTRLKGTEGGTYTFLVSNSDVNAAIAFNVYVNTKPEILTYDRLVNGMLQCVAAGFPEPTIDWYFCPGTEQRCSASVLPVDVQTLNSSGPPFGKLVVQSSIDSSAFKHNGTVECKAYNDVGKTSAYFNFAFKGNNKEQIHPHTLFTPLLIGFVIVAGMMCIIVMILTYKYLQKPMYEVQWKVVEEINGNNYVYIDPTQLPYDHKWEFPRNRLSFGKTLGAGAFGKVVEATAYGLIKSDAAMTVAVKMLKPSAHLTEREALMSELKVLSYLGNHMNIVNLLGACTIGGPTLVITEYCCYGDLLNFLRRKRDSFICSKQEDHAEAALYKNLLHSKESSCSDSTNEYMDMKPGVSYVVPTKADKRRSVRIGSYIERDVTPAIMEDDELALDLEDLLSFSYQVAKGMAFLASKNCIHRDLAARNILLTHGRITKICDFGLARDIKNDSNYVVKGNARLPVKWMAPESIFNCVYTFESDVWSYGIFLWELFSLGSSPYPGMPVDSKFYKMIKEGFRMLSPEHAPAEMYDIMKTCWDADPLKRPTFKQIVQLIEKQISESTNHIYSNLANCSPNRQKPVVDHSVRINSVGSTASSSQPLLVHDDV
Setting [24] is: read-out: Inhibition rate (%) B-Raf^V600E.

Entries after “also recorded” stand apart in the source; their conditions may differ. Where two headings read alike, the source gives them in different places.

B-Raf^V600E, sequence (P15056 433-726 V600E): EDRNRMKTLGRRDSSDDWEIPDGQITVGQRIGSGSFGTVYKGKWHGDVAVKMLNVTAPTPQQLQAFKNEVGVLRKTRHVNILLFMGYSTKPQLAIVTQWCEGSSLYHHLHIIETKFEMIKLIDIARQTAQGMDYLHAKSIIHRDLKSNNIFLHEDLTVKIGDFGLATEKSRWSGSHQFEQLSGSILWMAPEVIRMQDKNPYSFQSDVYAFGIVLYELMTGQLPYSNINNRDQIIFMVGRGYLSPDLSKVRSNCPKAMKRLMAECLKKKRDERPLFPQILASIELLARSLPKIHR
B-Raf^WT, sequence (P15056 433-726): as the sequence (P15056 433-726 V600E) above, with E168V counted along it
ERK1, sequence (P27361 whole entry, species assumed): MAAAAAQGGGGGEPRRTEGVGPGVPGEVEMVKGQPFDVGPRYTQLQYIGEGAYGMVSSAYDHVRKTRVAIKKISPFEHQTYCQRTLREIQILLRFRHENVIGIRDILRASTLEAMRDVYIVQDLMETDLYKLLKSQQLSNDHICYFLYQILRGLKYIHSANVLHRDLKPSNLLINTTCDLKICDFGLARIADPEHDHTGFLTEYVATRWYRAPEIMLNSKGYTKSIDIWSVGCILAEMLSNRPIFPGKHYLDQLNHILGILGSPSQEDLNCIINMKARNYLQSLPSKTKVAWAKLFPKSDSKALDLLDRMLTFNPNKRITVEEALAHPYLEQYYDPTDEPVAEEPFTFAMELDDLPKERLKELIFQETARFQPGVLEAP
IGF1R, sequence (P08069 31-1367, species assumed): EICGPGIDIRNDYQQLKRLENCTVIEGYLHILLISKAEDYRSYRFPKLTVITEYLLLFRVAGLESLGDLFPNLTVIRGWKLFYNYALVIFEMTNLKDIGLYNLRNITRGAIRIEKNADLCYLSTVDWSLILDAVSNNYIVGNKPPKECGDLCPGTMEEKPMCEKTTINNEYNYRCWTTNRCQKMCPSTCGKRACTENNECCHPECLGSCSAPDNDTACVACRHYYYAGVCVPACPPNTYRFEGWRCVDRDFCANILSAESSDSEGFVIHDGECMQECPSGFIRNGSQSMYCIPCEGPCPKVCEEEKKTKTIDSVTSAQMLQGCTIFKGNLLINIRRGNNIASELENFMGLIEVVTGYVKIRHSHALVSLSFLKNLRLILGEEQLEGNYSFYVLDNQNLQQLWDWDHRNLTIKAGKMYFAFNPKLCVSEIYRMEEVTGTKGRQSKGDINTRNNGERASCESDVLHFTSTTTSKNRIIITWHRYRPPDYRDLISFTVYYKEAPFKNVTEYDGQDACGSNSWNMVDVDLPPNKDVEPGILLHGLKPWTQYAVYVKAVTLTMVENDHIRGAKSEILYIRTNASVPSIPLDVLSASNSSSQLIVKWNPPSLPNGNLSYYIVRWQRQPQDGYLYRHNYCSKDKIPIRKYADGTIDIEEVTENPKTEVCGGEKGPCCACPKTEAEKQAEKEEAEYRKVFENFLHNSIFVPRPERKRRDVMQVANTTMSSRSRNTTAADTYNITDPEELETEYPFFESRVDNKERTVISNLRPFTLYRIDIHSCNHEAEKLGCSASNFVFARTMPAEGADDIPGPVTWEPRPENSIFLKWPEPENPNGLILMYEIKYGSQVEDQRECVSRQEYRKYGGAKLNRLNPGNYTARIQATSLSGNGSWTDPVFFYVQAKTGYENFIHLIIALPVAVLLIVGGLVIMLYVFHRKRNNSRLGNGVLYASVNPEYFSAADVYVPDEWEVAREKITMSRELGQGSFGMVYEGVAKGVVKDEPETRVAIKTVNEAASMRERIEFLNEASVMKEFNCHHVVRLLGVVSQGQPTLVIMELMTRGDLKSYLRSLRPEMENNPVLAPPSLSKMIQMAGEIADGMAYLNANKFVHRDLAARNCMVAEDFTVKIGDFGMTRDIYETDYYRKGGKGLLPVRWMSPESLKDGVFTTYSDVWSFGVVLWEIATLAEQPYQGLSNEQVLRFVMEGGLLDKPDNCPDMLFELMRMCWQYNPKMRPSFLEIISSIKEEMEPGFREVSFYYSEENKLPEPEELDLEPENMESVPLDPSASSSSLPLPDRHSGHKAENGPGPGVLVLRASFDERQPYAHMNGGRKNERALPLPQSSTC

In general, inhibition refers to the relative decrease from the control value, in per cent. As for `COc1cccc(-c2ccc(C=C3C(=O)NC(=S)NC3=O)o2)c1` [Compound 22b, 5-[5-(3-methoxy-phenyl)-furan-2ylmethylene]-2-thioxo-dihydro-pyrimidine-4,6-dione], in data set [1] (setting [24]), the inhibition at 0.5 µM was determined as 34% and the inhibition at 2 µM is 63%. Besides, the inhibition at 2 µM in data set [2] came out at 6%. In addition, in data set [3], the inhibition at 10 µM amounted to 26.2%.
A word on the IC50: it is the concentration that inhibits the measured activity by half. Regarding `O=C1NC(=S)NC(=O)C1=Cc1ccc(-c2ccc3ccccc3c2)o1` [Compound 22j, 5-[5-(2-naphthyl)-furan-2ylmethylene]-2-thioxo-dihydro-pyrimidine-4,6-dione], the half-maximal inhibitory concentration (IC50) in data set [1] was 1070 nM; in data set [2], 1930 nM. In addition, in data set [3], the inhibition at 10 µM worked out at 6.9%.
Take `CCCS(=O)(=O)Nc1ccc(F)c(C(=O)c2c[nH]c3ncc(-c4ccc(Cl)cc4)cc23)c1F` [Vemurafenib]: in data set [4] (Vemurafenib treated patients), the “side effects in treated patients” value was “induction of keratoacanthoma was frequently observed”. Besides, the “tumor regression in patients” value in [4] (patients harboring the B-Raf^V600E mutation) was “complete or partial tumor regression in the majority of patients”.
`COc1ccc(-c2ccc(C=C3C(=O)NC(=S)NC3=O)o2)cc1` [Compound 22h, 5-[5-(4-methoxy-phenyl)-furan-2ylmethylene]-2-thioxo-dihydro-pyrimidine-4,6-dione]: the values for the 50% inhibitory concentration (IC50) in data set [1] and in [2] were 2690 nM and 3690 nM, respectively. Further, the inhibition at 10 µM in data set [3] came out at 94.4%; in data set [5] it was 13%. In data set [3] (10 µM), the “Tumor growth inhibition rate A375(B-Raf^V600E)” value is on record as “potent growth inhibition activity; also recorded: virtually complete growth inhibition”.
As for `O=C1NC(=S)NC(=O)C1=Cc1ccc(-c2ccc3c(c2)OCO3)o1` [Compound 22q, 5-[5-(3,4-methylenedioxy)-furan-2ylmethylene]-2-thioxo-dihydro-pyrimidine-4,6-dione], the “selectivity for B-Raf^V600E over other tested protein kinases” value in [1] (panel of 16 protein kinases) is listed as “more than 10 fold”. In addition, the inhibition at 10 µM in [3] is 77.7%; in data set [5] it was 47.7%. In addition, the “Tumor growth inhibition rate A375(B-Raf^V600E)” value in data set [3] is on record as “potent growth inhibition activity”. The “proliferation of 1205Lu cells” value in [6] is reported as “significantly inhibited”. The “proliferation of WM983B cells” value in [7] was “significantly inhibited”. In data set [8], the “proliferation of WM3918 cells” value was “significantly more resistant”. Further, the “proliferation of FF2508 fibroblasts” value in [9] is “significantly more resistant”. The inhibition at 1 µM in data set [10] is 6.2%; in data set [13], 3.3%; in [14], 10%; in data set [15], 5.6%; in [16] it was 15%; in [18], 6%. Also, the inhibition at 1 µM in [20] turned out to be 4.9%; in [21] it was 4.6%; in data set [22], 18.6%; in data set [23], 18.3%. The inhibition at 5 µM in [10] amounted to 15.2%; in [11], 0.8%; in [12] it was 1.2%; in [13] it was 12.6%; in data set [14], 13.7%; in data set [15] it was 6.8%. Moreover, the inhibition at 5 µM in data set [16] was 35.7%; in [17] it was 5.2%; in [18], 7.7%; in data set [19], 19.4%; in data set [20], 18.6%; in data set [21] it was 14.5%. Moreover, the values for the inhibition at 5 µM in [22] and in data set [23] were 19.4% and 20%, respectively.
Regarding `Cc1ccc(-c2ccc(C=C3C(=O)NC(=S)NC3=O)o2)cc1` [Compound 22g, 5-[5-(4-methyl-phenyl)-furan-2ylmethylene]-2-thioxo-dihydro-pyrimidine-4,6-dione], in data set [1] (setting [24]), the inhibition at 0.5 µM came to 50%. Also, the inhibition at 2 µM was 59% in data set [1] (setting [24]) and 17% in [2]. The values for the inhibition at 10 µM in data set [3] and in data set [5] were 84% and 3.6%, respectively. The “Tumor growth inhibition rate A375(B-Raf^V600E)” value in data set [3] (10 µM) is listed as “potent growth inhibition activity; also recorded: virtually complete growth inhibition”.
Regarding `CC(C)(C)c1ccc(-c2ccc(C=C3C(=O)NC(=S)NC3=O)o2)cc1` [Compound 22i, 5-[5-(4-tert-butyl-phenyl)-furan-2ylmethylene]-2-thioxo-dihydro-pyrimidine-4,6-dione], the inhibition at 0.5 µM in [1] (setting [24]) came out at 36%. In addition, the inhibition at 2 µM in data set [1] (setting [24]) worked out at 57%; in [2], 29%. The values for the inhibition at 10 µM in [3] and in data set [5] were 95.4% and 7.6%, respectively. In data set [3] (10 µM), the “Tumor growth inhibition rate A375(B-Raf^V600E)” value is on record as “potent growth inhibition activity; also recorded: virtually complete growth inhibition”.
In the case of `O=C1NC(=S)NC(=O)C1=Cc1ccc(-c2ccc([N+](=O)[O-])cc2)o1` [Compound 22c, 5-[5-(4-nitro-phenyl)-furan-2ylmethylene]-2-thioxo-dihydro-pyrimidine-4,6-dione], the values for the inhibition at 2 µM in data set [1] (setting [24]) and in data set [2] were 59% and 55%, respectively. Further, the inhibition at 10 µM in data set [3] came to 46.3%.
On to `O=C1NC(=S)NC(=O)C1=Cc1ccc(-c2ccc(Cl)cc2)o1` [Compound 22e, 5-[5-(4-chloro-phenyl)-furan-2ylmethylene]-2-thioxo-dihydro-pyrimidine-4,6-dione], for which, in [1] (setting [24]), the inhibition at 0.5 µM came out at 33% and the inhibition at 2 µM amounted to 69%. In addition, the inhibition at 2 µM in data set [2] was determined as 15%. Further, in data set [3], the inhibition at 10 µM is 82.9% and the “Tumor growth inhibition rate A375(B-Raf^V600E)” value was “potent growth inhibition activity”. Further, in [5], the inhibition at 10 µM stood at 9%.
`O=C1C(=Cc2ccc(-c3ccccc3[N+](=O)[O-])o2)Cc2ccccc21` [Compound 16a, 2-[5-(2-nitro-phenyl)-furan-2-ylmethylene]-indan-1-one]: the inhibition at 0.5 µM in data set [1] (read-out: Inhibition rate (%) B-Raf^V600E, 0.5μM of compound) stood at 47%. Moreover, the inhibition at 2 µM was > 50% in data set [1] (read-out: Inhibition rate (%) B-Raf^V600E, 2μM of compound) and 11% in data set [2]. In data set [3], the inhibition at 10 µM was 16.5%.
